Measured values published in patent publication US11066443B2 (Hoffmann-La Roche Inc., priority 2017, dated 2021).
In brackets after ≈: the same amount, converted by molar mass.

Test system: P. aeruginosa ATCC27853
Assay: Antimicrobial susceptibility testing: microbroth minimum inhibitory concentration (MIC) determination
Format: cell-based
Conditions: Pseudomonas aeruginosa, CLSI microbroth dilution in CAMHB, read after 20 hours, lowest concentration inhibiting >=80% of growth
Description: The in vitro antimicrobial activity of the compounds was determined through microbroth minimum inhibitory concentration (MIC) methodology performed according to the Clinical and Laboratory Standard Institute guidelines (CLSI—M07-A9 Jan. 2012. Methods for Dilution Antimicrobial Susceptibility Tests for Bacteria That Grow Aerobically; Approved Standard—Ninth Edition, Clinical and Laboratory Standards Institue, Wayne/PA, US and the CLSI—M100-S24 Jan. 2014. Performance Standards for Antimicrobial Susceptibility Testing; Approved Standard—Fourth Informational Supplement, Clinical and Laboratory Standards Institue, Wayne/PA, US).
The compound stock solution was freshly prepared at 10× the required top concentration for the MIC determination, i.e. at 1280 mg/L, by reconstitution of the dry compound in 50:50 water:DMSO.
Polystyrene non-treated 96 wells microtiter plates were used for preparing panel containing compound serial twofold diluted at two times the final testing concentration (e.g. range from 64 to 0.06 μg/ml) in cation adjusted Mueller Hinton broth medium (CAMHB).
Inoculum was prepared by the “direct colony suspension method”. Colonies of P. aeruginosa ATCC27853 or clinical isolates were suspended in saline solution and adjusted to 0.5 McFarland, diluted 100 times in CAMHB broth and 50 μl added to each well (final concentration of cells ˜5×10^(5) CFU/ml and Final volume/well of 100 μl). Microtiter plates were sealed and incubated at 35±2° C.
MICs values were read after 20 hours of incubation and recorded as the lowest concentration of the antimicrobial that inhibits more or equal to 80% of growth of the organism as detected by the unaided eye and using a microtiter plate optical density reader (OD 600 nm).
Table 1 provides the minimum inhibitory concentration (MIC) in microgram per milliliter of the compounds of present invention obtained against the P. aeruginosa ATCC27853 (Table 1).

MIC [µg/mL]	SMILES
32 (≈ 45.4 µM)	CN1C(=O)[C@H](CCCCN)NC(=O)[C@H](CCCN)NCc2ccccc2Sc2cc(Cl)ccc2CNC(=O)[C@@H]1Cc1c[nH]c2ccccc12 [Example 2, (12S,15S,18S)-15-(4-Amino-butyl)-18-(3-amino-propyl)-5-chloro-12-(1H-indol-3-ylmethyl)-13-methyl-2-thia-10,13,16,19-tetraaza-tricyclo[19.4.0.0*3,8*]pentacosa-1(21),3,5,7,22,24-hexaene-11,14,17-trione]
> 64	CN1C(=O)[C@H](CCCCN)NC(=O)[C@H](CCCN)NCc2ccccc2Sc2c(Cl)cccc2CNC(=O)[C@@H]1Cc1c[nH]c2ccccc12 [Example 3, (12S,15S,18S)-15-(4-Amino-butyl)-18-(3-amino-propyl)-4-chloro-12-(1H-indol-3-ylmethyl)-13-methyl-2-thia-10,13,16,19-tetraaza-tricyclo[19.4.0.0*3,8*]pentacosa-1(21),3,5,7,22,24-hexaene-11,14,17-trione]
16 (≈ 20.7 µM)	CN1C(=O)[C@H](CCCCN)NC(=O)[C@H](CCCN)NCc2ccccc2Sc2c(Cl)cc(C(F)(F)F)cc2CNC(=O)[C@@H]1Cc1c[nH]c2ccccc12 [Example 11, (12S,15S,18S)-15-(4-Amino-butyl)-18-(3-amino-propyl)-4-chloro-12-(1H-indol-3-ylmethyl)-13-methyl-6-trifluoromethyl-2-thia-10,13,16,19-tetraaza-tricyclo[19.4.0.0*3,8*]pentacosa-1(25),3,5,7,21,23-hexaene-11,14,17-trione]
32 (≈ 42.3 µM)	CN1C(=O)[C@H](CCCCN)NC(=O)[C@H](CCCN)NCc2cc(F)ccc2Sc2c(Cl)cc(Cl)cc2CNC(=O)[C@@H]1Cc1c[nH]c2ccccc12 [Example 12, (12S,15S,18S)-15-(4-Amino-butyl)-18-(3-amino-propyl)-4,6-dichloro-23-fluoro-12-(1H-indol-3-ylmethyl)-13-methyl-2-thia-10,13,16,19-tetraaza-tricyclo[19.4.0.0*3,8*]pentacosa-1(25),3,5,7,21,23-hexaene-11,14,17-trione]
16 (≈ 20.7 µM)	CN1C(=O)[C@H](CCCCN)NC(=O)[C@H](CCCN)NCc2ccccc2Sc2c(cc(Cl)cc2C(F)(F)F)CNC(=O)[C@@H]1Cc1c[nH]c2ccccc12 [Example 13, (12S,15S,18S)-15-(4-Amino-butyl)-18-(3-amino-propyl)-6-chloro-12-(1H-indol-3-ylmethyl)-13-methyl-4-trifluoromethyl-2-thia-10,13,16,19-tetraaza-tricyclo[19.4.0.0*3,8*]pentacosa-1(25),3,5,7,21,23-hexaene-11,14,17-trione]
32 (≈ 45.8 µM)	Cc1cccc2c1Sc1ccccc1CN[C@@H](CCCN)C(=O)N[C@@H](CCCCN)C(=O)N(C)[C@@H](Cc1c(C)[nH]c3ccccc13)C(=O)NC2 [Example 16, (12S,15S,18S)-15-(4-Amino-butyl)-18-(3-amino-propyl)-4,13-dimethyl-12-(2-methyl-1H-indol-3-ylmethyl)-2-thia-10,13,16,19-tetraaza-tricyclo[19.4.0.0*3,8*]pentacosa-1(21),3,5,7,22,24-hexaene-11,14,17-trione]
32 (≈ 42.5 µM)	Cc1[nH]c2ccccc2c1C[C@H]1C(=O)NCc2cc(Cl)cc(Cl)c2Sc2ccccc2CN[C@@H](CCCN)C(=O)N[C@@H](CCCCN)C(=O)N1C [Example 17, (12S,15S,18S)-15-(4-Amino-butyl)-18-(3-amino-propyl)-4,6-dichloro-13-methyl-12-(2-methyl-1H-indol-3-ylmethyl)-2-thia-10,13,16,19-tetraaza-tricyclo[19.4.0.0*3,8*]pentacosa-1(21),3,5,7,22,24-hexaene-1,14,17-trione]

More lines, now with the values behind:

SMILES	MIC [µg/mL]
CCc1ccc2c(c1)CNC(=O)[C@H](Cc1c[nH]c3ccccc13)N(C)C(=O)[C@H](CCCCN)NC(=O)[C@H](CCCN)NCc1ccccc1S2 [Example 18, (12S,15S,18S)-15-(4-Amino-butyl)-18-(3-amino-propyl)-6-ethyl-12-(1H-indol-3-ylmethyl)-13-methyl-2-thia-10,13,16,19-tetraaza-tricyclo[19.4.0.0*3,8*]pentacosa-1(25),3,5,7,21,23-hexaene-11,14,17-trione]	32 (≈ 45.8 µM)
CN1C(=O)[C@H](CCCCN)NC(=O)[C@H](CCCN)NCc2ccccc2Sc2ccc(-c3ccccc3)cc2CNC(=O)[C@@H]1Cc1c[nH]c2ccccc12 [Example 19, (12S,15S,18S)-15-(4-Amino-butyl)-18-(3-amino-propyl)-12-(1H-indol-3-ylmethyl)-13-methyl-6-phenyl-2-thia-10,13,16,19-tetraaza-tricyclo[19.4.0.0*3,8*]pentacosa-1(25),3,5,7,21,23-hexaene-11,14,17-trione]	32 (≈ 42.9 µM)
CN1C(=O)[C@H](CCCCN)NC(=O)[C@H](CCCN)NCc2ccccc2Sc2ccc(C(C)(C)C)cc2CNC(=O)[C@@H]1Cc1c[nH]c2ccccc12 [Example 20, (12S,15S,18S)-15-(4-Amino-butyl)-18-(3-amino-propyl)-6-tert-butyl-12-(1H-indol-3-ylmethyl)-13-methyl-2-thia-10,13,16,19-tetraaza-tricyclo[19.4.0.0*3,8*]pentacosa-1(25),3,5,7,21,23-hexaene-11,14,17-trione]	32 (≈ 44.1 µM)
CC(C)c1ccc2c(c1)CNC(=O)[C@H](Cc1c[nH]c3ccccc13)N(C)C(=O)[C@H](CCCCN)NC(=O)[C@H](CCCN)NCc1ccccc1S2 [Example 21, (12S,15S,18S)-15-(4-Amino-butyl)-18-(3-amino-propyl)-12-(1H-indol-3-ylmethyl)-6-isopropyl-13-methyl-2-thia-10,13,16,19-tetraaza-tricyclo[19.4.0.0*3,8*]pentacosa-1(25),3,5,7,21,23-hexaene-11,14,17-trione]	32 (≈ 44.9 µM)
CN1C(=O)[C@H](CCCCN)NC(=O)[C@H](CCCN)NCc2cccnc2Sc2c(cc(C(F)(F)F)cc2C(F)(F)F)CNC(=O)[C@@H]1Cc1c[nH]c2ccccc12 [Example 23, (11S,14S,17S)-14-(4-Amino-butyl)-11-(3-amino-propyl)-17-(1H-indol-3-ylmethyl)-16-methyl-23,25-bis-trifluoromethyl-2-thia-4,10,13,16,19-pentaaza-tricyclo[19.4.0.0*3,8*]pentacosa-1(25),3,5,7,21,23-hexaene-12,15,18-trione]	32 (≈ 39.7 µM)
CN1C(=O)[C@H](CCCCN)NC(=O)[C@H](CCCN)NCc2cccnc2Sc2c(Cl)ccc(-c3ccccc3)c2CNC(=O)[C@@H]1Cc1c[nH]c2ccccc12 [Example 29, (11S,14S,17S)-14-(4-Amino-butyl)-11-(3-amino-propyl)-25-chloro-17-(1H-indol-3-ylmethyl)-16-methyl-22-phenyl-2-thia-4,10,13,16,19-pentaaza-tricyclo[19.4.0.0*3,8*]pentacosa-1(25),3(8),4,6,21,23-hexaene-12,15,18-trione]	32 (≈ 41 µM)

Test system: P. aeruginosa NCTC11454
Assay: Antimicrobial susceptibility testing: 50% growth inhibitory concentration (IC50) determination
Format: cell-based
Conditions: Pseudomonas aeruginosa, Iso-Sensitest broth, OD 600 nm every 20 minutes over 16h, growth inhibition during logarithmic growth
Summary of the method: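 Twofold dilutions (e.g. 50–0.097 μM final) in Iso-Sensitest broth were inoculated with P. aeruginosa NCTC11454 at ~5×10^5 CFU/mL and incubated at 35±2 °C. OD600 was read every 20 min over 16 h. IC50 was derived from growth inhibition in the logarithmic phase.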

IC50 [µM]	SMILES
> 50	CN1C(=O)[C@H](CCCCN)NC(=O)[C@H](CCCN)NCc2ccccc2Sc2cc(Cl)ccc2CNC(=O)[C@@H]1Cc1c[nH]c2ccccc12 [Example 2, (12S,15S,18S)-15-(4-Amino-butyl)-18-(3-amino-propyl)-5-chloro-12-(1H-indol-3-ylmethyl)-13-methyl-2-thia-10,13,16,19-tetraaza-tricyclo[19.4.0.0*3,8*]pentacosa-1(21),3,5,7,22,24-hexaene-11,14,17-trione]
11.6	CN1C(=O)[C@H](CCCCN)NC(=O)[C@H](CCCN)NCc2ccc(-c3ccccc3)cc2Sc2c(Cl)cccc2CNC(=O)[C@@H]1Cc1c[nH]c2ccccc12 [Example 52, (12S,15S,18S)-15-(4-Amino-butyl)-18-(3-amino-propyl)-4-chloro-12-(1H-indol-3-ylmethyl)-13-methyl-24-phenyl-2-thia-10,13,16,19-tetraaza-tricyclo[19.4.0.0*3,8*]pentacosa-1(25),3,5,7,21,23-hexaene-11,14,17-trione]
29.1	CN1C(=O)[C@H](CCCCN)NC(=O)[C@H](CCCN)NCc2cccnc2Sc2c(Cl)ccc(-c3cccc(CCN)c3)c2CNC(=O)[C@@H]1Cc1c[nH]c2ccccc12 [Example 54, (11S,14S,17S)-14-(4-Amino-butyl)-22-[3-(2-amino-ethyl)-phenyl]-11-(3-amino-propyl)-25-chloro-17-(1H-indol-3-ylmethyl)-16-methyl-2-thia-4,10,13,16,19-pentaaza-tricyclo[19.4.0.0*3,8*]pentacosa-1(25),3(8),4,6,21,23-hexaene-12,15,18-trione]
26.6	CN1C(=O)[C@H](CCCCN)NC(=O)[C@H](CCCN)NCc2cccnc2Sc2c(Cl)ccc(-c3ccc(N4CCNCC4)cc3)c2CNC(=O)[C@@H]1Cc1c[nH]c2ccccc12 [Example 55, (11S,14S,17S)-14-(4-Amino-butyl)-11-(3-amino-propyl)-25-chloro-17-(1H-indol-3-ylmethyl)-16-methyl-22-(4-piperazin-1-yl-phenyl)-2-thia-4,10,13,16,19-pentaaza-tricyclo[19.4.0.0*3,8*]pentacosa-1(25),3(8),4,6,21,2-hexaene-12,15,18-trione]
